From patent US20160303147A1 (priority 2007, published 2016)
Read-outs that look alike come from different tables or passages of the source.

How the values were obtained:
[1] = test system: lethal Orthopoxivirus infections; assay type: in vivo; conditions: mice and rabbits
[2] = Clinical safety study in healthy volunteers, single dose cohort 6; assay type: in vivo, human; conditions: cohort 6, 600 μg/kg single dose, still blinded
Description: (§1) An initial study was conducted to evaluate the safety and pharmacokinetics of
(§2) CMX001 in healthy volunteers. The study consisted of a single dose arm (SD) and a multiple dose arm (MD). In the single dose arm 7 cohorts of 6 subjects were treated (4 subjects received active drug and 2 placebo). Enrollment was staggered as 2 subjects (one active, one placebo) followed by 4 subjects (Groups A and B). The estimated single doses for the two highest doses treated for a […] subject were 40 mg (0.6 mg/kg cohort 6) and 70 mg (1 mg/kg cohort 7). In the multiple dose arm, cohort 6MD received 0.1 mg/kg on Day 0, 6 and 12; Cohort 7MD received 0.2 mg/kg on Day 0, 6 and 12. Levels of cidofovir, CMX001 and CMX064 (major metabolite) were measured in blood and urine of subjects during the course of the study. Gastrointestinal (GI) monitoring of the subjects included (a) monitoring for clinical signs of GI adverse events, (b) monitoring for clinical symptoms using a visual Analog Scale, (c) monitoring for appetite loss/anorexia, nausea, vomiting, diarrhea, constipation and intestinal gas/bloating, (d) laboratory tests for fecal occult blood; serum electrolytes, urine specific gravity, BUN/creatinine ratio; serum albumin, and lipids, and (e) diagnostic studies (the Wireless capsule endoscopy (PillCam®, Given Imaging)).
Plasma concentration curves of CMX001 following a single dose administration are shown in FIG. 1, and plasma concentration curves of cidofovir following a single dose of CMX001 are shown in FIG. 2.

[3] = Clinical pharmacokinetics in healthy volunteers, single dose of CMX001; assay type: in vivo; conditions: Human, analyte = label
Description: as §1, §2
Table 3 illustrates the PK comparison of CMX 001 with CMX 021 and CMX 064 for mouse, rabbit and human.

[4] = intravenous infusion, patients; cited from earlier work

## CCCCCCCCCCCCCCCCOCCCOP(=O)(O)CO[C@H](CO)Cn1ccc(N)nc1=O [CMX001]
[1]; daily for 5 days, low titer inoculums
  effective dose: 1 to 2 mg/kg
[1]; late stage, single dose
  effective dose: 20 to 30 mg/kg
[1]
  protection against lethal Orthopoxivirus infections: essentially completely protective
[2]
  adverse events: No serious adverse events (SAEs), no significant adverse events (AEs) (i.e. ≧Grade 2), no AEs directly attributable to drug
  changes to clinical laboratory values: No drug associated clinically significant changes to clinical laboratory values, including those indicative of kidney dysfunction
  gastrointestinal capsule endoscopy findings: No post-dose clinically significant gastrointestinal capsule endoscopy findings attributable to drug

## Nc1ccn(C[C@@H](CO)OCP(=O)(O)OCCCOCCCC(=O)O)c(=O)n1 [CMX064]
[3]; CMX001 dose 0.050 mg/kg
  AUCO→: 38.95 ng·h/mL
  Cmax: 4.63 ng/mL
[3]; CMX001 dose 0.100 mg/kg
  AUCO→: 34.02 ng·h/mL
  Cmax: 2.85 ng/mL
[3]; CMX001 dose 0.200 mg/kg
  AUCO→: 39.73 ng·h/mL
  Cmax: 4.55 ng/mL
[3]; CMX001 dose 0.400 mg/kg
  AUCO→: 202.99 ng·h/mL
  Cmax: 23.03 ng/mL
[3]; CMX001 dose 0.600 mg/kg
  AUCO→: 187.0 ng·h/mL
  Cmax: 24.86 ng/mL

## Nc1ccn(C[C@@H](CO)OCP(=O)(O)O)c(=O)n1 [Cidofovir]
[4]
  nephrotoxicity: dose-limited by its nephrotoxicity
